The results in this text go back to ChEMBL document CHEMBL1909046, “DrugMatrix in vitro pharmacology data”.

Molecules are shown by their SMILES.

Sequence of Insulin receptor (P15127 27-759 limits assumed): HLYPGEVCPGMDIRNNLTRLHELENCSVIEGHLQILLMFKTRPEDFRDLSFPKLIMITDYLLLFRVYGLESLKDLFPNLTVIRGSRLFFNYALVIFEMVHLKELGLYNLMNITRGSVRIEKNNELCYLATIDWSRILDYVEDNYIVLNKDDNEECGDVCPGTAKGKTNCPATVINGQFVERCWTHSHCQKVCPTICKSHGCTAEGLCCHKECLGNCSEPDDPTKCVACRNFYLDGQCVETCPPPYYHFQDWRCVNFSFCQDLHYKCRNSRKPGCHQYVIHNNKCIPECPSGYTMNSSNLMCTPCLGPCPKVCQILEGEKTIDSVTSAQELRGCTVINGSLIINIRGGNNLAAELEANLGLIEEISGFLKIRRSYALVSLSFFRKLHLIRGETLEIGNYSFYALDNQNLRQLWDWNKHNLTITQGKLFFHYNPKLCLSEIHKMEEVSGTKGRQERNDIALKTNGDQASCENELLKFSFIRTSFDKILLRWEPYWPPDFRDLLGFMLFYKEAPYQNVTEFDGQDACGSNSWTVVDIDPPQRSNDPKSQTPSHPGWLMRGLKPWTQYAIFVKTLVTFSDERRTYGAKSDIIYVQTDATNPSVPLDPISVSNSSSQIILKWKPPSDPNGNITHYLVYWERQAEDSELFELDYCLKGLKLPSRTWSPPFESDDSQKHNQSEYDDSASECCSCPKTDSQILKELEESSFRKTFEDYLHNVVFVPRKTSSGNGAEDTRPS
Sequence of Insulin receptor (P15127 764-1383 limits assumed): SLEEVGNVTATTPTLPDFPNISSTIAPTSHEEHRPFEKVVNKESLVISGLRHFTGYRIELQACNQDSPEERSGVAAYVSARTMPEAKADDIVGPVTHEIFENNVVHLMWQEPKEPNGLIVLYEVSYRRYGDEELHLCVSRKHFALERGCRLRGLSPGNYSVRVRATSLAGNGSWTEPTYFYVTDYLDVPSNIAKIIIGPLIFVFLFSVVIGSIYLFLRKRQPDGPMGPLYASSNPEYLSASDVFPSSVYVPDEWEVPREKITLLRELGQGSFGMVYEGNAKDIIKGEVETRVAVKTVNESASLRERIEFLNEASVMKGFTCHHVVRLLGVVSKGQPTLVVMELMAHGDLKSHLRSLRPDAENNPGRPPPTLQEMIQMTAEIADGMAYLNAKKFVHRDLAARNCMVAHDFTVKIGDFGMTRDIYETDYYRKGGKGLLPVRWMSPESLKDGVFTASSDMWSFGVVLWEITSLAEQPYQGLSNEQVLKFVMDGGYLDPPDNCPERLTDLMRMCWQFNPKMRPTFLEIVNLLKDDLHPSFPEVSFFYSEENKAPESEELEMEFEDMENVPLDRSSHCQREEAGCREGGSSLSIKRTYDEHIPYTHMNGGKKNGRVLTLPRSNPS

One test addresses Insulin receptor (Rattus norvegicus, UniProt P15127).
Assay: not given
It is filed as cell membranes, Wistar, Liver, Membrane.
Conditions: not given
Take `CCc1ccc(C(=O)C(C)CN2CCCCC2)cc1` (stereo not drawn) [EPERISONE]: the IC50 result is “Not Active”.
The same measure, in the same setting: the entry for `CC1COc2c(N3CCN(C)CC3)c(F)cc3c(=O)c(C(=O)O)cn1c23` (stereo not drawn) [OFLOXACIN] is “Not Active”.
For `CCCc1cc(=O)[nH]c(=S)[nH]1` [PROPYLTHIOURACIL], the IC50 entry is listed as “Not Active”.

A further test deals with T1, Leukotriene C4 synthase (Cavia porcellus, UniProt A6XA80).
T1 sequence (A6XA80 whole entry): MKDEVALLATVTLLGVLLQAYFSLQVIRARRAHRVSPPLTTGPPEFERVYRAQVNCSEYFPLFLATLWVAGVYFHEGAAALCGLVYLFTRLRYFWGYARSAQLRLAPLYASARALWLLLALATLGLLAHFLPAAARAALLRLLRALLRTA
The experiment in a line: biochemical. It is filed as tissue-based, Lung.
Conditions: not given
In the case of `CCc1ccc(C(=O)C(C)CN2CCCCC2)cc1` (stereo not drawn) [EPERISONE], the IC50 result is “Not Active”.
With `CC1COc2c(N3CCN(C)CC3)c(F)cc3c(=O)c(C(=O)O)cn1c23` (stereo not drawn) [OFLOXACIN], the IC50 result is on record as “Not Active”.
`CCCc1cc(=O)[nH]c(=S)[nH]1` [PROPYLTHIOURACIL]: the IC50 entry is reported as “Not Active”.

Test system in the next test: not listed separately
The experiment in a line: DRUGMATRIX: ATPase, Na+/K+ enzyme inhibition (substrate: ATP). It is filed as tissue-based, Sus scrofa, Heart. The conditions noted are these: Not Active = under 50% inhibition at 10 µM.
Consider `CCc1ccc(C(=O)C(C)CN2CCCCC2)cc1` (stereo not drawn) [EPERISONE], for which the IC50 result is reported as “Not Active” and the Ki result was “Not Active”.
With `CC1COc2c(N3CCN(C)CC3)c(F)cc3c(=O)c(C(=O)O)cn1c23` (stereo not drawn) [OFLOXACIN], the IC50 entry is listed as “Not Active” and the Ki entry was “Not Active”.
Consider `CCCc1cc(=O)[nH]c(=S)[nH]1` [PROPYLTHIOURACIL], for which the IC50 entry was “Not Active” and the Ki result is reported as “Not Active”.

Another test deals with C-C chemokine receptor type 2 (Homo sapiens, UniProt P41597).
Sequence of C-C chemokine receptor type 2 (P41597 whole entry): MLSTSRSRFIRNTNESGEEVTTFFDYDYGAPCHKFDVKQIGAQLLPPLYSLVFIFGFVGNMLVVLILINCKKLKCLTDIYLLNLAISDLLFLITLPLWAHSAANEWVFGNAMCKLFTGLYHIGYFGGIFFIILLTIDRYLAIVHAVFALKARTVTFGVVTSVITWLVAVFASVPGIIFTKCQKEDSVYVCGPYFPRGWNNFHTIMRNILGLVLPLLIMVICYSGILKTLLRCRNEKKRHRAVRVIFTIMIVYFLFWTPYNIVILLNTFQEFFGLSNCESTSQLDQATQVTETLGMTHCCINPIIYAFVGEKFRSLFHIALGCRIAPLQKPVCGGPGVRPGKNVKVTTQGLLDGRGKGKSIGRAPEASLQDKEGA
Assay: not given
Type of test: cell membranes, CHO-K1, Membrane. Particulars: cho-k1.
As to `CCc1ccc(C(=O)C(C)CN2CCCCC2)cc1` (stereo not drawn) [EPERISONE], the IC50 entry is “Not Active”.
The same measure, in the same setting: the entry for `CC1COc2c(N3CCN(C)CC3)c(F)cc3c(=O)c(C(=O)O)cn1c23` (stereo not drawn) [OFLOXACIN] is “Not Active”; for `CCCc1cc(=O)[nH]c(=S)[nH]1` [PROPYLTHIOURACIL] it is “Not Active”.

Test system in the next test: not listed separately
Kind of test: DRUGMATRIX: Glutamate, Kainate radioligand binding (ligand: [3H] Kainic acid). It is filed as cell membranes, Rattus norvegicus, Wistar, Brain, Membrane. The conditions noted are these: Not Active = under 50% inhibition at 10 µM.
With `CCc1ccc(C(=O)C(C)CN2CCCCC2)cc1` (stereo not drawn) [EPERISONE], the IC50 entry was “Not Active” and the Ki entry was “Not Active”.
As to `CC1COc2c(N3CCN(C)CC3)c(F)cc3c(=O)c(C(=O)O)cn1c23` (stereo not drawn) [OFLOXACIN], the IC50 entry was “Not Active” and the Ki result was “Not Active”.
On to `CCCc1cc(=O)[nH]c(=S)[nH]1` [PROPYLTHIOURACIL], for which the IC50 result is on record as “Not Active” and the Ki result is recorded as “Not Active”.

Test system in the next test: not listed separately
Kind of test: DRUGMATRIX: Phorbol Ester radioligand binding (ligand: [3H] PDBu). Type of test: cell membranes, Mus musculus, ICR, Brain, Membrane. Particulars: Not Active = under 50% inhibition at 10 µM.
For `CCc1ccc(C(=O)C(C)CN2CCCCC2)cc1` (stereo not drawn) [EPERISONE], the IC50 entry was “Not Active” and the Ki result was “Not Active”.
As for `CC1COc2c(N3CCN(C)CC3)c(F)cc3c(=O)c(C(=O)O)cn1c23` (stereo not drawn) [OFLOXACIN], the IC50 result is on record as “Not Active” and the Ki result is “Not Active”.
With `CCCc1cc(=O)[nH]c(=S)[nH]1` [PROPYLTHIOURACIL], the IC50 result is reported as “Not Active” and the Ki entry is “Not Active”.

Another test concerns the target cGMP-specific 3',5'-cyclic phosphodiesterase (Homo sapiens, UniProt O76074). The experiment in a line: DRUGMATRIX: Phosphodiesterase PDE5 enzyme inhibition (substrate: [3H]cGMP + cGMP). Type of test: tissue-based, Platelet. The conditions noted are these: platelet; Not Active = under 50% inhibition at 10 µM.
As for `CCc1ccc(C(=O)C(C)CN2CCCCC2)cc1` (stereo not drawn) [EPERISONE], the IC50 result is recorded as “Not Active”.
Still for that read-out and setting: for `CC1COc2c(N3CCN(C)CC3)c(F)cc3c(=O)c(C(=O)O)cn1c23` (stereo not drawn) [OFLOXACIN] the value was “Not Active”; for `CCCc1cc(=O)[nH]c(=S)[nH]1` [PROPYLTHIOURACIL], “Not Active”.

The target of a further test is T2, Neutrophil elastase (Homo sapiens, UniProt P08246).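 Further: inhibition of neutrophil elastase enzyme activity, measured with a p-nitroanilide-linked peptide substrate; in other assays of this panel Not Active means under 50% inhibition at 10 µM.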
T2 sequence (P08246 whole entry): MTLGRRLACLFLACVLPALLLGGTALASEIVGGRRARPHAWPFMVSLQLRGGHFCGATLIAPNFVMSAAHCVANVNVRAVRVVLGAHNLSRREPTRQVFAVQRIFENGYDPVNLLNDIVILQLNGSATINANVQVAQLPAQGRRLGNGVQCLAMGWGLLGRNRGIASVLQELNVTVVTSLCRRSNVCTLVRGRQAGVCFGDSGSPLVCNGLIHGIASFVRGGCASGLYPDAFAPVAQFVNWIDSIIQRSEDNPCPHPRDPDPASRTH
Assay: not given
Type of test: tissue-based.
Conditions: not given
Take `CCc1ccc(C(=O)C(C)CN2CCCCC2)cc1` (stereo not drawn) [EPERISONE]: the IC50 entry was “Not Active”.
For `CC1COc2c(N3CCN(C)CC3)c(F)cc3c(=O)c(C(=O)O)cn1c23` (stereo not drawn) [OFLOXACIN], the IC50 result is given as “Not Active”.
Take `CCCc1cc(=O)[nH]c(=S)[nH]1` [PROPYLTHIOURACIL]: the IC50 entry is listed as “Not Active”.

The target in another test is T3, C-C chemokine receptor type 4 (Homo sapiens, UniProt P51679). Further: in other assays of this panel Not Active means under 50% inhibition at 10 µM.
T3 sequence (P51679 whole entry): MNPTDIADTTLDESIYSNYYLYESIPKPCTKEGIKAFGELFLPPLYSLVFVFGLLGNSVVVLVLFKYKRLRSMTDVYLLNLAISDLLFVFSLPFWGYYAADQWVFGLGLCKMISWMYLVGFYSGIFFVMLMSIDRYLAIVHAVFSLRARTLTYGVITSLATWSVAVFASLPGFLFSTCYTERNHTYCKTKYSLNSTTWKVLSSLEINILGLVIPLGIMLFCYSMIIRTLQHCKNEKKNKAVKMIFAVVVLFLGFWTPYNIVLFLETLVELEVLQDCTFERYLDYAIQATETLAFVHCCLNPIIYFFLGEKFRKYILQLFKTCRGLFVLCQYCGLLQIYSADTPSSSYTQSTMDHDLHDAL
Assay: not given
It is filed as cell membranes, Membrane. Particulars: chem-1.
With `CCc1ccc(C(=O)C(C)CN2CCCCC2)cc1` (stereo not drawn) [EPERISONE], the IC50 entry is “Not Active”.
On the same count and under the same terms, for `CC1COc2c(N3CCN(C)CC3)c(F)cc3c(=O)c(C(=O)O)cn1c23` (stereo not drawn) [OFLOXACIN] the value was “Not Active”.
With `CCCc1cc(=O)[nH]c(=S)[nH]1` [PROPYLTHIOURACIL], the IC50 result is “Not Active”.

For the next test, the target named is T4, Neuropeptide Y receptor type 1 (Homo sapiens, UniProt P25929). Further: in other assays of this panel Not Active means under 50% inhibition at 10 µM.
T4 sequence (P25929 whole entry): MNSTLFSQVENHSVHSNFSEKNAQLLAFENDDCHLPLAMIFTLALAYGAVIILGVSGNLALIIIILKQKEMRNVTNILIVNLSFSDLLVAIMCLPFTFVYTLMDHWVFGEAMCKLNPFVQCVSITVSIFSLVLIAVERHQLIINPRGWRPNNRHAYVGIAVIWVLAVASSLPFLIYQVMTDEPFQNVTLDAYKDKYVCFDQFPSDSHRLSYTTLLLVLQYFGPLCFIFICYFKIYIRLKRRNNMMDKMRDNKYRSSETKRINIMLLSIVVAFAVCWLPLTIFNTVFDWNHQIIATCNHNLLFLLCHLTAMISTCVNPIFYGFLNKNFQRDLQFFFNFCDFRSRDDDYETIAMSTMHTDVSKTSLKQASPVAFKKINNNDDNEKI
Assay: not given
Particulars: sk-n-mc. Type of test: cell membranes, Membrane.
Consider `CCc1ccc(C(=O)C(C)CN2CCCCC2)cc1` (stereo not drawn) [EPERISONE], for which the IC50 entry was “Not Active”.
Turning to `CC1COc2c(N3CCN(C)CC3)c(F)cc3c(=O)c(C(=O)O)cn1c23` (stereo not drawn) [OFLOXACIN], the IC50 entry is listed as “Not Active”.
With `CCCc1cc(=O)[nH]c(=S)[nH]1` [PROPYLTHIOURACIL], the IC50 result is “Not Active”.

For the next test, the target named is T5, Nitric oxide synthase, inducible (Mus musculus, UniProt P29477).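 Further: inhibition of iNOS enzyme activity measured with L-arginine as substrate; in other assays of this panel Not Active means under 50% inhibition at 10 µM.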
T5 sequence (P29477 whole entry): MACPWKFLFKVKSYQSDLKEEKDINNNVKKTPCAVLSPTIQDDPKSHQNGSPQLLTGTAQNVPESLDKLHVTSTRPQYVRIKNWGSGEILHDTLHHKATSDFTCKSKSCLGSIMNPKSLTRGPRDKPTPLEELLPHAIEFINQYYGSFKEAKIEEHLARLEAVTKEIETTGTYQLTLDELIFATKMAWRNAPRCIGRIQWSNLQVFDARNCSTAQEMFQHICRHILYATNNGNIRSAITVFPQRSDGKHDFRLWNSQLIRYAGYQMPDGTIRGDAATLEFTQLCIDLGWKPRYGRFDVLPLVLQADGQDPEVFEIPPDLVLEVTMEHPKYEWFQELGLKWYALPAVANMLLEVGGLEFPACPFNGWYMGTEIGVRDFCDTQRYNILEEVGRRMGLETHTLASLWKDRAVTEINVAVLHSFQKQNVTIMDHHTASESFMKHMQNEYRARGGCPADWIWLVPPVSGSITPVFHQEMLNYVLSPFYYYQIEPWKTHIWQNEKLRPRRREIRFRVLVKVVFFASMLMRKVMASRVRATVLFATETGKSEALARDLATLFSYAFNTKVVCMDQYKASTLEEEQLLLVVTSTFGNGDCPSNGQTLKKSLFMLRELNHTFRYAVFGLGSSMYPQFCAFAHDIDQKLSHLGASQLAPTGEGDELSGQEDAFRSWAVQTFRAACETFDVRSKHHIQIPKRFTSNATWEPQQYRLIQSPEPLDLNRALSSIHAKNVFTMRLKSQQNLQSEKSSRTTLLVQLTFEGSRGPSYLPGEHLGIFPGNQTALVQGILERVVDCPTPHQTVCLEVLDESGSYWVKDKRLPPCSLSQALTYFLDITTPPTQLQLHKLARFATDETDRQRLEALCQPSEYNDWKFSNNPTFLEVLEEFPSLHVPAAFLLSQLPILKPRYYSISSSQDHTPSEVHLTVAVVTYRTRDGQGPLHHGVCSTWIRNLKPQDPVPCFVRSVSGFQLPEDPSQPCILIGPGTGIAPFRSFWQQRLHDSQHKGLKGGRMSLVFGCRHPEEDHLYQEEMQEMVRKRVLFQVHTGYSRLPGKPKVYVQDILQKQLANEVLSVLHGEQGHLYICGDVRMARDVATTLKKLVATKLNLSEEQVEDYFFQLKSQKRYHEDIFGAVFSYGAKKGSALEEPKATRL
Assay: not given
Details: species or system Escherichia coli.
Conditions: not given
`CCc1ccc(C(=O)C(C)CN2CCCCC2)cc1` (stereo not drawn) [EPERISONE]: the IC50 entry is on record as “Not Active”.
Same read-out and setting: the entry for `CC1COc2c(N3CCN(C)CC3)c(F)cc3c(=O)c(C(=O)O)cn1c23` (stereo not drawn) [OFLOXACIN] is “Not Active”; for `CCCc1cc(=O)[nH]c(=S)[nH]1` [PROPYLTHIOURACIL] it is “Not Active”.

Test system in the next test: not listed separately
The experiment in a line: DRUGMATRIX: Glutamate, AMPA radioligand binding (ligand: [3H] AMPA). It is filed as cell membranes, Rattus norvegicus, Wistar, Cerebral cortex, Membrane. Particulars: Not Active = under 50% inhibition at 10 µM.
`CCc1ccc(C(=O)C(C)CN2CCCCC2)cc1` (stereo not drawn) [EPERISONE]: the IC50 result was “Not Active” and the Ki entry is on record as “Not Active”.
With `CC1COc2c(N3CCN(C)CC3)c(F)cc3c(=O)c(C(=O)O)cn1c23` (stereo not drawn) [OFLOXACIN], the IC50 entry was “Not Active” and the Ki entry is “Not Active”.
Turning to `CCCc1cc(=O)[nH]c(=S)[nH]1` [PROPYLTHIOURACIL], the IC50 entry was “Not Active” and the Ki entry is “Not Active”.
